Measured values published in paper PMC4730229, “Benzobisthiazoles Represent a Novel Scaffold for Kinase Inhibitors of CLK Family Members” (Biochemistry, 2015).
pIC50: −log10 of the molar value.

What was measured:
Assay type in all cases: biochemical
CLK3 = molecular target: T1, CLK3 (Homo sapiens, UniProt P49761); experiment: Kinase inhibition assay, IC50
T1 construct: The catalytic domains of CLK1, CLK2, CLK3, CLK2K193A, and CLK2K193A/D290A were tagged with GST; GST (N); made in house

[1] = molecular target: T2, GST-CLK2cd (CLK2 catalytic domain) (Homo sapiens, UniProt P49760); experiment: High-throughput screen, Kinase-Glo in vitro kinase assay; conditions: compound at 10 μM; read-out: percentage of inhibition on CLK2 (primary screen)
T2 construct: cDNA encoding the CLK2 catalytic domain (CLK2cd, amino acids 140–496); made in house; host or cells: Escherichia coli BL21(DE3)-R3-lambda-PPase
Experimental: A small molecule inhibitor library consisting of 1600 compounds was obtained from LIFE Chemicals (Kiev, Ukraine). These compounds are part of the CUTE kinase collection that was predicted by in silico profiling against a panel of targets and includes potent kinase inhibitor compounds.[16] Compounds were dissolved as 10 mM stocks in DMSO and stored at room temperature, in the presence of 5% humidity and 5% oxygen in the dark in a Roylan Storage Pod system. Compounds were dispensed into white 384-well plates using the Labcyte Echo520 instrument at a final concentration of 10 μM. Next, 5 μL of 144.92 nM purified GST-CLK2cd in kinase assay buffer A was added to the compounds, incubated for 10 min at room temperature prior to addition of 5 μL of a 2 μM ATP/10 μM S6K peptide mixture, and incubated again for 60 min at room temperature. Subsequently, 10 μL of Kinase-Glo was added to the wells, and the plates were analyzed after 10 min on the Envision II multilabel plate reader (PerkinElmer). […] The percentage of inhibition is equal to 100 – [(total ATP before assay – remaining ATP in assay with compound)/(total ATP before assay – remaining ATP in assay with DMSO) × 100].

firefly luciferase = experiment: Luciferase inhibition assay (Kinase-Glo, no kinase); conditions: compound at 10 μM
Experimental: For analysis of luciferase inhibition, 10 μL of luciferase reagent (Kinase-Glo, Promega) was added to 10 μL of a mixture consisting of 1 μM ATP and 5 μM S6K and 10 μM compound (potential kinase inhibitor) in buffer A in the absence of kinase and incubated for 10 min at room temperature in a white well plate before the luminescence was read. The percentage of inhibition is equal to (luminescence in the assay without compound – luminescence in the assay with compound)/(luminescence in the assay without compound) × 100.

CLK2 = CLK2 (Homo sapiens, UniProt P49760); experiment: Kinase inhibition assay, IC50; design: cDNA encoding the CLK2 catalytic domain (CLK2cd, amino acids 140–496); made in house; host or cells: Escherichia coli BL21(DE3)-R3-lambda-PPase; conditions: relative to 3A5
Chain of CLK2 (P49760 140-496): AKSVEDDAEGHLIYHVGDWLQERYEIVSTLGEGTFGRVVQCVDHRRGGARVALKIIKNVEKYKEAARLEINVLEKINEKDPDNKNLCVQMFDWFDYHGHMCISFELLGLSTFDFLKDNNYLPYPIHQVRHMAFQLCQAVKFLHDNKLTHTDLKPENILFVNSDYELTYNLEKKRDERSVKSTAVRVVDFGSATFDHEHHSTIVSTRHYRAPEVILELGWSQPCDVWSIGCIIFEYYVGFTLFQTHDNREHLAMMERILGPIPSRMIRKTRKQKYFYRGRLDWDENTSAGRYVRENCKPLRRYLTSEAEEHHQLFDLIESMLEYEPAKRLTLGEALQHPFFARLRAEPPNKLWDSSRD

T2 sequence (P49760 140-496): as above
T1 sequence (P49761 156-472 limits assumed): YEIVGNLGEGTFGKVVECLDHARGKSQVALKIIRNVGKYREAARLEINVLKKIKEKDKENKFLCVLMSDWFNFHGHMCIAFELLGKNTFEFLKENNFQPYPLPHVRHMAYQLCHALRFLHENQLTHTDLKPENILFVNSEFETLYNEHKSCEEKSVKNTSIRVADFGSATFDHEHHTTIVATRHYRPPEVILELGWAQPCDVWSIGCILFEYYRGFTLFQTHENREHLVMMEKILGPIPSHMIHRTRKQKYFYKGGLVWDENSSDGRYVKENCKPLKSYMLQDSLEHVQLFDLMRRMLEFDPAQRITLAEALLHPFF

| pIC50 (CLK3) | inhibition at 10 µM [1] | % inhibition of luciferase (firefly luciferase) | decrease of inhibition against CLK2 compared to 3A5 (CLK2) | SMILES |
| --- | --- | --- | --- | --- |
| < 5.52 | – | – | – | O=C1N=C(NCc2cccs2)S/C1=C\c1ccc2ncccc2c1 [NR9, (5Z)-5-(quinolin-6-ylmethylidene)-2-[(thiophen-2-ylmethyl)amino]-1,3-thiazol-4(5H)-one] |
| – | 56% | 21.1 ± 2.2% | – | O=C(Nc1cccc(-c2nc3ccccc3[nH]2)c1)c1ccc2nsnc2c1 [18H3] |
| – | 65% | 26 ± 1.1% | – | O=C(Nc1cccc(-c2nc3ccccc3[nH]2)c1)c1ccc2ncsc2c1 [3B5] |
| – | 55% | 23.6 ± 1.5% | 2–3 fold | CSc1nc2ccc3nc(NC(=O)c4ccc(S(=O)(=O)N5CCOCC5)cc4)sc3c2s1 [5F4] |
| – | 51% | 0 ± 2.4% | – | COc1ccc(Cc2cnc(NC(=O)c3cc(C)oc3C)s2)cc1 [13D3] |
| – | 53% | 21.9 ± 0.2% | – | COc1ccccc1C(=O)Nc1nc2ncccc2cc1-c1ccccc1 [17F6] |
| – | 58% | 26.4 ± 2.4% | – | Fc1ccc(-c2csc3ncnc(NCc4ccccc4)c23)cc1 [5E11] |
| – | 53% | 19.6 ± 3.6% | – | COc1cc(C(=O)Nc2nc3ccc(S(=O)(=O)N4CCCCC4)cc3s2)cc(OC)c1OC [7C4] |
| – | 63% | 13.4 ± 1.8% | – | CCN1/C(=C/C(C)=O)Sc2ccc(OC)cc21 [TG003, reference compound] |
| – | 51% | 17.5 ± 4.5% | – | CC(=O)Nc1ccc(-c2nc3c(Cl)cccc3[nH]2)cc1 [2A4] |
| – | 50% | 8.1 ± 1.8% | – | O=C(Nc1nc2c(s1)CCCC2)C1CC1 [1C11] |
| – | 52% | 0 ± 6.2% | – | COCCNC(=O)c1cccc(Nc2nc(-c3ccccc3)c3cc(Cl)ccc3n2)c1 [8B5] |
| – | 58% | 17.5 ± 2.2% | – | CC1(C)Cc2cccc(OCC(=O)Nc3cccc(-c4cc[nH]n4)c3)c2O1 [18B6] |
| – | 53% | 18.8 ± 1.6% | – | CC(=O)Nc1nc2cc3c(cc2s1)OCO3 [8A6] |
| – | 50% | 47.8 ± 2.1% | – | Cc1nc2c(ccc3nc(NC(=O)c4cccs4)sc32)s1 [4G9] |
| – | 58% | 5.6 ± 4.0% | – | O=C(O)c1ccc(C(=O)Nc2ccccc2-c2nc3ccccc3[nH]2)cc1 [9C6] |
| – | 56% | 20.4 ± 1.6% | – | O=C(NCCO)c1ccc(Nc2nc(-c3ccccc3)c3cc(Cl)ccc3n2)cc1 [4B9] |
